The results in this text go back to ChEMBL document CHEMBL5528067, “From Synergy to Monotherapy: Discovery of Novel 2,4,6-Trisubstituted Triazine Hydrazone Derivatives with Potent Antifungal Potency In Vitro and In Vivo” (J Med Chem, 2024).

Type in all cases: functional
The subject of assay [1] is Candida albicans. Kind of assay: Synergistic antifungal activity against FCZ-resistant Candida albicans strain 904 assessed as fractional inhibitory concentration index measured after 48 hrs in presence of FCZ by CLSI based micro-dilution broth method. A general note: In broth dilution the organism is exposed to a series of concentrations in liquid medium.
The test system of assay [2] is Candida albicans. Kind of assay: Antifungal activity against FCZ-resistant Candida albicans strain 901 assessed as growth inhibition measured after 48 hrs incubation by CLSI based micro-dilution broth method.
Assay [3] relates to Candida albicans. The assay is described as follows: Antifungal activity against FCZ-resistant Candida albicans strain 904 assessed as growth inhibition in presence of fluconazole measured after 48 hrs incubation by CLSI based micro-dilution broth method.
The subject of assay [4] is Candida albicans. Kind of assay: Antifungal activity against FCZ-resistant Candida albicans strain 901 assessed as growth inhibition in presence of fluconazole measured after 48 hrs incubation by CLSI based micro-dilution broth method.
In assay [5] the test system is Candida albicans. The assay is described as follows: Antifungal activity against FCZ-resistant Candida albicans strain 904 assessed as growth inhibition measured after 48 hrs incubation by CLSI based micro-dilution broth method.
For assay [6], the system named is Candida albicans. Kind of assay: Synergistic antifungal activity against FCZ-resistant Candida albicans strain 901 assessed as fractional inhibitory concentration index measured after 48 hrs in presence of FCZ by CLSI based micro-dilution broth method.

Usually MIC80 stands for an inhibitory concentration at the 80% level, which refers to growth in some studies and to a panel of isolates in others. `Oc1ccc(/C=N/Nc2nc(NCc3ccc(F)cc3)nc(NCc3ccc(F)cc3)n2)cc1`: the “fractional inhibitory concentration index (FICI)” value in assay [1] and in assay [6] was 0.38 each time. In addition, the MIC80 in assay [2] is > 64 µg/mL; in assay [3], 16 µg/mL; in assay [4], 16 µg/mL; in assay [5] it was > 64 µg/mL.
Turning to `Oc1cccc(/C=N/Nc2nc(NCc3ccc(F)cc3)nc(NCc3ccc(F)cc3)n2)c1`, the “fractional inhibitory concentration index (FICI)” value in assay [1] and in assay [6] was 0.25 each time. For the same compound, the MIC80 in assay [2] was > 64 µg/mL; in assay [3] it was 8 µg/mL; in assay [4] it was 8 µg/mL; in assay [5] it was > 64 µg/mL.
On to `Cc1ccc(/C=N/Nc2nc(NCc3ccc(F)cc3)nc(NCc3ccc(F)cc3)n2)cc1`, for which the “fractional inhibitory concentration index (FICI)” value in assay [1] and in assay [6] was 1.13 throughout. Moreover, the MIC80 in assay [2], in assay [3], in assay [4] and in assay [5] was > 64 µg/mL in each case.
In the case of `O=[N+]([O-])c1cc(O)ccc1/C=N/Nc1nc(NCc2ccc(F)cc2)nc(NCc2ccc(F)cc2)n1`, the “fractional inhibitory concentration index (FICI)” value in assay [1] and in assay [6] was 0.16 throughout. For the same compound, the MIC80 in assay [2] was > 64 µg/mL; in assay [3], 2 µg/mL; in assay [4], 2 µg/mL; in assay [5] it was > 64 µg/mL.
In the case of `Cc1cccc(/C=N/Nc2nc(NCc3ccc(F)cc3)nc(NCc3ccc(F)cc3)n2)c1`, the “fractional inhibitory concentration index (FICI)” value in assay [1] and in assay [6] was 1.13 in each case. Besides, the MIC80 in assay [2], in assay [3], in assay [4] and in assay [5] was > 64 µg/mL throughout.
Consider `O=[N+]([O-])c1c(O)cccc1/C=N/Nc1nc(NCc2ccc(F)cc2)nc(NCc2ccc(F)cc2)n1`, for which the “fractional inhibitory concentration index (FICI)” value in assay [1] and in assay [6] was 1.13 in each case. Further, the MIC80 in assay [2], in assay [3], in assay [4] and in assay [5] was > 64 µg/mL in each case.
In the case of `N#Cc1ccc(/C=N/Nc2nc(NCc3ccc(F)cc3)nc(NCc3ccc(F)cc3)n2)cc1`, the “fractional inhibitory concentration index (FICI)” value in assay [1] and in assay [6] was 1.13 in each case. Moreover, the MIC80 in assay [2], in assay [3], in assay [4] and in assay [5] was > 64 µg/mL throughout.
Take `Fc1ccc(CNc2nc(NCc3ccc(F)cc3)nc(N/N=C/c3ccc(Cl)cc3)n2)cc1`: the “fractional inhibitory concentration index (FICI)” value in assay [1] and in assay [6] was 1.13 throughout. Besides, the MIC80 in assay [2], in assay [3], in assay [4] and in assay [5] was > 64 µg/mL each time.
For `Fc1ccc(CNc2nc(NCc3ccc(F)cc3)nc(N/N=C/c3ccccc3F)n2)cc1`, the “fractional inhibitory concentration index (FICI)” value in assay [1] and in assay [6] was 1.13 each time. Also, the MIC80 in assay [2], in assay [3], in assay [4] and in assay [5] was > 64 µg/mL in each case.
Take `Fc1ccc(CNc2nc(NCc3ccc(F)cc3)nc(N/N=C/c3ccccc3Cl)n2)cc1`: the “fractional inhibitory concentration index (FICI)” value in assay [1] and in assay [6] was 1.13 throughout. Besides, the MIC80 in assay [2], in assay [3], in assay [4] and in assay [5] was > 64 µg/mL each time.
In the case of `O=[N+]([O-])c1cc(/C=N/Nc2nc(NCc3ccc(F)cc3)nc(NCc3ccc(F)cc3)n2)ccc1O`, the “fractional inhibitory concentration index (FICI)” value in assay [1] was determined as 0.19; in assay [6], 0.25. Besides, the MIC80 in assay [2] was > 64 µg/mL; in assay [3], 4 µg/mL; in assay [4], 8 µg/mL; in assay [5], > 64 µg/mL.
For the compound `Fc1ccc(CNc2nc(NCc3ccc(F)cc3)nc(N/N=C/c3ccc(Br)cc3)n2)cc1`, the “fractional inhibitory concentration index (FICI)” value in assay [1] and in assay [6] was 1.13 throughout. Also, the MIC80 in assay [2], in assay [3], in assay [4] and in assay [5] was > 64 µg/mL throughout.
On to `Fc1ccc(CNc2nc(NCc3ccc(F)cc3)nc(N/N=C/c3ccc(OC(F)(F)F)cc3)n2)cc1`, for which the “fractional inhibitory concentration index (FICI)” value in assay [1] and in assay [6] was 1.13 in each case. Also, the MIC80 in assay [2], in assay [3], in assay [4] and in assay [5] was > 64 µg/mL each time.
Take `Fc1ccc(CNc2nc(NCc3ccc(F)cc3)nc(N/N=C/c3ccc(I)cc3)n2)cc1`: the “fractional inhibitory concentration index (FICI)” value in assay [1] and in assay [6] was 1.13 each time. Also, the MIC80 in assay [2], in assay [3], in assay [4] and in assay [5] was > 64 µg/mL throughout.
As for `Fc1ccc(/C=N/Nc2nc(NCc3ccc(F)cc3)nc(NCc3ccc(F)cc3)n2)cc1`, the “fractional inhibitory concentration index (FICI)” value in assay [1] and in assay [6] was 1.13 each time. Also, the MIC80 in assay [2], in assay [3], in assay [4] and in assay [5] was > 64 µg/mL each time.
Consider `O=[N+]([O-])c1ccccc1/C=N/Nc1nc(NCc2ccc(F)cc2)nc(NCc2ccc(F)cc2)n1`, for which the “fractional inhibitory concentration index (FICI)” value in assay [1] and in assay [6] was 1.13 each time. Besides, the MIC80 in assay [2], in assay [3], in assay [4] and in assay [5] was > 64 µg/mL in each case.
`O=[N+]([O-])c1cccc(/C=N/Nc2nc(NCc3ccc(F)cc3)nc(NCc3ccc(F)cc3)n2)c1`: the “fractional inhibitory concentration index (FICI)” value in assay [1] and in assay [6] was 1.13 in each case. In addition, the MIC80 in assay [2], in assay [3], in assay [4] and in assay [5] was > 64 µg/mL throughout.
With `COc1ccc(/C=N/Nc2nc(NCc3ccc(F)cc3)nc(NCc3ccc(F)cc3)n2)cc1`, the “fractional inhibitory concentration index (FICI)” value in assay [1] and in assay [6] was 1.13 in each case. Also, the MIC80 in assay [2], in assay [3], in assay [4] and in assay [5] was > 64 µg/mL each time.
As to `O=[N+]([O-])c1cc(O)cc(/C=N/Nc2nc(NCc3ccc(F)cc3)nc(NCc3ccc(F)cc3)n2)c1`, the “fractional inhibitory concentration index (FICI)” value in assay [1] is listed as 0.19; in assay [6], 0.25. The MIC80 was > 64 µg/mL in assay [2], 4 µg/mL in assay [3], 8 µg/mL in assay [4] and > 64 µg/mL in assay [5].
With `Fc1ccc(CNc2nc(NCc3ccc(F)cc3)nc(N/N=C/c3cccc(F)c3)n2)cc1`, the “fractional inhibitory concentration index (FICI)” value in assay [1] and in assay [6] was 1.13 in each case. The MIC80 in assay [2], in assay [3], in assay [4] and in assay [5] was > 64 µg/mL in each case.
Take `O=[N+]([O-])c1ccc(/C=N/Nc2nc(NCc3ccc(F)cc3)nc(NCc3ccc(F)cc3)n2)cc1O`: the “fractional inhibitory concentration index (FICI)” value in assay [1] and in assay [6] was 0.19 throughout. Moreover, the MIC80 was > 64 µg/mL in assay [2], 4 µg/mL in assay [3], 4 µg/mL in assay [4] and > 64 µg/mL in assay [5].
For the compound `Cc1ccccc1/C=N/Nc1nc(NCc2ccc(F)cc2)nc(NCc2ccc(F)cc2)n1`, the “fractional inhibitory concentration index (FICI)” value in assay [1] and in assay [6] was 1.13 in each case. Further, the MIC80 in assay [2], in assay [3], in assay [4] and in assay [5] was > 64 µg/mL throughout.
Turning to `Fc1ccc(CNc2nc(NCc3ccc(F)cc3)nc(N/N=C/c3cccc(Cl)c3)n2)cc1`, the “fractional inhibitory concentration index (FICI)” value in assay [1] and in assay [6] was 1.13 in each case. Further, the MIC80 in assay [2], in assay [3], in assay [4] and in assay [5] was > 64 µg/mL throughout.
As for `O=[N+]([O-])c1ccc(/C=N/Nc2nc(NCc3ccc(F)cc3)nc(NCc3ccc(F)cc3)n2)cc1`, the “fractional inhibitory concentration index (FICI)” value in assay [1] and in assay [6] was 1.13 throughout. For the same compound, the MIC80 in assay [2], in assay [3], in assay [4] and in assay [5] was > 64 µg/mL each time.
Consider `O=[N+]([O-])c1ccc(O)cc1/C=N/Nc1nc(NCc2ccc(F)cc2)nc(NCc2ccc(F)cc2)n1`, for which the “fractional inhibitory concentration index (FICI)” value in assay [1] and in assay [6] was 0.25 in each case. For the same compound, the MIC80 was > 64 µg/mL in assay [2], 8 µg/mL in assay [3], 8 µg/mL in assay [4] and > 64 µg/mL in assay [5].
For the compound `Fc1ccc(CNc2nc(NCc3ccc(F)cc3)nc(N/N=C/c3ccccc3)n2)cc1`, the “fractional inhibitory concentration index (FICI)” value in assay [1] and in assay [6] was 1.13 throughout. Moreover, the MIC80 in assay [2], in assay [3], in assay [4] and in assay [5] was > 64 µg/mL each time.
